Test results as given in patent US20170224679A1, “Use of CXCR2 Antagonists For The Prevention and/or Treatment of Chemotherapy Induced Peripheral Neuropathy (CIPN)” (GlaxoSmithKline Intellectual Property Development Limited, priority 2014, published 2017).

Legend:
Type in all cases: cell-based
CXCR2 receptor [1] = biological target: T1, CXCR2 receptor (Homo sapiens, UniProt P25025); assay: GPCR Arrestin Assay (DiscoveRX PathHunter), CXCR2; parameters: host or cells: PathHunter CHO cell lines
T1 sequence (P25025 1-360): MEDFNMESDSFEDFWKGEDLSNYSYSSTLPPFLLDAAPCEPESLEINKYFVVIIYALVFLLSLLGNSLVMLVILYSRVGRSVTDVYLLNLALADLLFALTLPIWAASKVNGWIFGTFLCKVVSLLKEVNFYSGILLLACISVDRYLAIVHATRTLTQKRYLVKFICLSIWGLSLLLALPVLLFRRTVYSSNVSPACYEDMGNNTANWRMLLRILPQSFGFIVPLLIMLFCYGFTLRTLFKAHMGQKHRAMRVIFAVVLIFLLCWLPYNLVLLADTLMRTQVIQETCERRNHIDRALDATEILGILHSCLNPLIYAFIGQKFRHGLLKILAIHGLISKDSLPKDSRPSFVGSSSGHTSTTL
Description: (§1) Certain compounds of the invention were also tested by DiscoveRX Corporation (42501 Albrae Street, Fremont, Calif. 94538, United States) in their GPCR Arrestin Assay to determine their activity against a panel of receptors including CXCR2 and CXCR1. PathHunter CHO cell lines were expanded from freezer stocks according to standard procedures. Cells were seeded in a total volume of 20 μL into white walled, 384-well microplates and incubated at 37° C. for the appropriate time prior to testing. The cells were pre-incubated with antagonist followed by agonist challenge at the EC80 concentration. Intermediate dilution of sample stocks was performed to generate 5× sample in assay buffer. 5 μL of 5× sample was added to cells and incubated at 37° C. or room temperature for 30 minutes. […] Assay signal was generated through a single addition of 12.5 or 15 μL (50% v/v) of PathHunter Detection reagent cocktail, followed by one hour incubation at room temperature. Microplates were read following signal generation with a PerkinElmer Envision™ instrument for chemiluminescent signal detection. Compound activity was analyzed using CBIS data analysis suite (ChemInnovation, Calif.).

CXCR1 receptor = biological target: T2, CXCR1 receptor (Homo sapiens, UniProt P25024); assay: GPCR Arrestin Assay (DiscoveRX PathHunter), CXCR1; parameters: host or cells: PathHunter CHO cell lines; details: PathHunter CHO cells, agonist at EC80; read-out: pIC50 against the CXCR1 receptor (converted)
T2 sequence (P25024 1-350): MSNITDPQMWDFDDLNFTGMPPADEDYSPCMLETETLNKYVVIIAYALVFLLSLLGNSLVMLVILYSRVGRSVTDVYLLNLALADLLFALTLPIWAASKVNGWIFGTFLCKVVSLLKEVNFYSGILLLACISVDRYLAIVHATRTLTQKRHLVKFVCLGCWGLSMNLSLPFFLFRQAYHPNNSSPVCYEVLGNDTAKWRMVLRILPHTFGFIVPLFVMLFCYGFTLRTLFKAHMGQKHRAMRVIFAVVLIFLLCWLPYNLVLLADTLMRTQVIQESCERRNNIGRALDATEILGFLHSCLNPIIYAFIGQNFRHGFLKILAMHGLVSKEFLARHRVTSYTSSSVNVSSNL
Description: as §1

CXCR2 receptor [2] = biological target: T1, CXCR2 receptor; assay: CXCR2 Tango assay; parameters: fused on or other part: TEV protease cleavage site and Gal4-VP16 transcription factor fused to the receptor (Invitrogen Tango construct); no part of the key; details: Tango reporter gene, 80 nM hCXCL1; read-out: pIC50 against the CXCR2 receptor (converted)
Excerpt: The assay measures ligand-induced activation of the receptor CXCR2 in a stable cell line containing the recombinant human CXCR2 linked to a TEV protease site and a Gal4-VP16 transcription factor (Invitrogen). Ligand binding to the receptor results in the recruitment of arrestin proteins (tagged with protease) to the receptor and triggers the release of a tethered transcription factor. The transcription factor enters the nucleus and activates the transcription of the reporter gene. The ability of a compound to inhibit CXCR2 activation is indirectly assessed by measuring the reporter gene activity.
A vial of cryopreserved cells was removed from liquid nitrogen and rapidly thawed in a water bath at 37° C. with gentle agitation. The cell contents were collected and resuspended in Assay Medium at a density of ˜200,000 cells/ml. All test compounds were dissolved in DMSO at a concentration of 10 mM and then were serially diluted to generate a 10-point dose response curve into 384-well assay plate (Greiner 781090) using an Echo (Labcyte) concentration-response program (50 nl/well). The cell-free, un-stimulated and positive controls were loaded with 50 nl/well pure DMSO to ensure that the DMSO concentration was constant across the plate for all assays. Using Multi-drop Combi (Thermo) with standard cassette, 50 μl of Assay Medium was added to cell-free control wells in compound-containing assay plate; 50 μl of the cell suspension without hCXCL1 (a CXCR2 ligand) was added to un-stimulated control wells (10,000 cells per well); and 50 μl of the cell suspension with 80 nM hCXCL1 was added to the rest of wells of the assay plate (10,000 cells per well). The cells were incubated overnight at 37° C./5% CO2·10 μl of 6× substrate mixture (LiveBLAzer™-FRET B/G substrate (CCF4-AM) Cat #K1096 from Invitrogen, Inc.) was added to each well using Multi-drop Combi (Thermo) with small-tube cassette and the plate was incubated at room temperature for 2 h in the dark. The plate was then read on EnVision using one excitation channel (409 nm) and two emission channels (460 nm and 530 nm).
The blue/green emission ratio (460 nm/530 nm) was calculated for each well by dividing the background-subtracted Blue emission values by the background-subtracted Green emission values. The dose response curve was based on sigmoidal dose-response model. All ratio data was normalized based upon the maximum emission ratio of positive control (hCXCL1) and minimum emission ratio of negative control (DMSO) on each plate.

CXCR2 receptor [3] = biological target: T1, CXCR2 receptor; assay: Human whole blood assay version ii) (CD11b, GROα stimulated); parameters: Assay d) measures the cellular functional activity to the native expressed human CXCR2 in whole blood; endogenous in cells; host or cells: human whole blood (neutrophils); details: 33 nM GROα, neutrophil CD11b, read-out: pIC50 against the CXCR2 receptor (converted)
Description: Blood was withdrawn by venipuncture from consented adults and poured into a Sterilin tube containing an anti-coagulant Heparin (10 μL/mL of blood). All the test compounds were dissolved in DMSO to 4 mM and serial diluted across the plate, 1 in 3 to provide 10 point dose response curves. The compounds were then diluted 100 fold in -PBS [Phosphate buffered saline (without Calcium Chloride and Magnesium Chloride)] after which, 1 μL was dispensed in 96 U bottom Costar plates using an FX. This was done to reduce the final DMSO concentration to 0.25% and for compounds to be screened at 10 uM final assay concentration, after addition of blood.
10 μL of blood was transferred to the compound plate using a multi-channel pipette, gently tapped and incubated for 15 minutes, at 37° C. After 15 minutes, the stimulant GROα was diluted to 100 nM in 0.1% BSA (Albumin Bovine Serum)-PBS and 5 μL is dispensed across the whole plate for a final concentration of 33 nM. The plate was gently tapped and incubated further for 15 minutes at 37° C. […]
Samples were run on a Becton and Dickinson (BD)-Acurri C6 Flow Cytometer using a HyperCyt sampling apparatus (IntelliCyt) with a flow rate 2 μL/sec. CD11 b upregulation is monitored in neutrophils and identified using a combination of both side scatter and CD16 expression.

## CC1=CCC[C@H]1NC(=O)Nc1ccc(Cl)c(S(=O)(=O)[C@@]2(C)CCOC2)c1O [Compound of Formula (J), 1-(4-chloro-2-hydroxy-3-(((S)-3-methyltetrahydrofuran-3-yl)sulfonyl)phenyl)-3-((R)-2-methylcyclopent-2-en-1-yl)urea]
CXCR2 receptor [1]; GPCR Arrestin Assay e)
  selectivity for CXCR2 over CXCR1: 730 fold
CXCR2 receptor [1]; PathHunter CHO cells, agonist at EC80, read-out: pIC50 against the CXCR2 receptor (converted)
  IC50: 5.01 nM
CXCR1 receptor
  IC50: 3980 nM
CXCR2 receptor [2]
  IC50: 1 nM
CXCR2 receptor [3]
  IC50: 39.8 nM
